# In patent US11365227B2, “Peptide and pharmaceutical compositions of same for use as an antimicrobial and in cancer treatment” (UNIVERSITAT DE VALÈNCIA, priority 2017, dated 2022):
# Read-outs that look alike come from different tables or passages of the source. Where a SMILES comes first, the peptide text is derived from it.
# Experiments:
# S. aureus = assay: Transmission electron microscopy of S. aureus cells treated with peptides; assay type: cell-based, Staphylococcus aureus subsp. aureus CECT 4013; conditions: 25 μg/mL, 1 h
# Method: The samples were prepared in the same way as for scanning electron microscopy, except for the series of graded dehydration with ethanol, in which only the 90° grade was reached. Then the samples were included in resin in 4 steps: ethanol 96°—resin LR-White 2:1 (20 h), ethanol 100°—resin 2:1 (20 h), ethanol 100°—resin 1:2 (20 h) and 100% resin (24 h at 60° C.). After the samples were included in the resin the block was prepared for ultrathin cuts of 60 nm in the equipment Leica UC6 Ultracut Microtome.
# Transmission electron microscopy provides high-resolution images which were used to view the ultrastructural damage caused by the peptides inside the bacteria. The cells of S. aureus CECT 4013 were treated with the peptides hBD-3, TcDef3-pep and PaSK at a concentration of 25 μg/mL, for 1 h, and analysed using transmission electron microscopy (FIG. 6). In cells without treatment, an intact cytoplasm membrane (3) and peptidoglycane wall (2) were observed, typical of a Gram+ bacteria as S. aureus, as well as a division septum (1) without malformations, while in treated cells different types of alterations were observed. […] Small size circular structures (9) are observed. These structures show a different electrodensity from cells and lack a cytoplasm membrane and peptidoglycane wall. The biofilm formed by the cells treated with peptides was also observed in the images obtained by transmission electron microscopy (FIG. 7) and it was not observed in the cells treated with human defensin hBD-3 (FIG. 6).
# MDA-MB-231 cells = assay: Differential proteomic analysis by SWATH; assay type: cell-based, human
smiles,measurement,setting,value
CC[C@H](C)[C@H](NC(=O)[C@H](CCCNC(=N)N)NC(=O)[C@H](CCCNC(=N)N)NC(=O)[C@H](CCCCN)NC(=O)[C@H](CC(N)=O)NC(=O)[C@H](CS)NC(=O)[C@H](Cc1ccc(O)cc1)NC(=O)CNC(=O)CNC(=O)[C@H](CCCNC(=N)N)NC(=O)[C@H](CCCCN)NC(=O)[C@H](CCCNC(=N)N)NC(=O)[C@H](CCCCN)NC(=O)[C@H](CC(C)C)NC(=O)[C@H](CC(C)C)NC(=O)[C@H](CS)NC(=O)[C@H](Cc1c[nH]cn1)NC(=O)[C@H](C)NC(=O)[C@H](C)NC(=O)[C@H](CS)NC(=O)[C@H](C)NC(=O)[C@H](C)NC(=O)[C@H](Cc1c[nH]cn1)NC(=O)[C@H](CC(N)=O)NC(=O)[C@@H](NC(=O)[C@@H](N)CCCCN)C(C)C)C(=O)N[C@@H](CS)C(=O)N[C@H](C(=O)N[C@@H](CS)C(=O)N[C@@H](CCCNC(=N)N)C(=O)N[C@@H](CC(N)=O)C(=O)O)C(C)C [PaSK] (H-KVNHAACAAHCLLKRKRGGYCNKRRICVCRN-OH; N-terminus and C-terminus assumed),"ultrastructural damage, transmission electron microscopy",S. aureus,"detachments, malformations and thinning of the membrane"
same,T/C change ratio,MDA-MB-231 cells,1.45
same,T/C change ratio,"MDA-MB-231 cells; ASNA_HUMAN, ATPase ASNA1",0.21
same,T/C change ratio,"MDA-MB-231 cells; BAZ1B_HUMAN, Tyrosine-protein kinase BAZ1B",0.31
same,T/C change ratio,"MDA-MB-231 cells; CALD1_HUMAN, Caldesmon",0.71
same,T/C change ratio,"MDA-MB-231 cells; CDCP1_HUMAN, Protein 1 containing domain CUB",1.22
same,T/C change ratio,"MDA-MB-231 cells; CK068_HUMAN, UPF0696 protein C11orf68",0.83
same,T/C change ratio,"MDA-MB-231 cells; DCUP_HUMAN, Uroporfphyrinogen decarboxylase",0.21
same,T/C change ratio,"MDA-MB-231 cells; DDX17_HUMAN, Probable DDX17 ATP-dependent RNA helicase",0.84
same,T/C change ratio,"MDA-MB-231 cells; DENR_HUMAN, Density regulated protein",0.31
same,T/C change ratio,"MDA-MB-231 cells; DHX36_HUMAN, DHX36 ATP-dependent RNA helicase",0.27
same,T/C change ratio,"MDA-MB-231 cells; DPOD1_HUMAN, DNA polymerase delta catalytic subunit",0.50
same,T/C change ratio,"MDA-MB-231 cells; EIF3B_HUMAN, Eukaryotic translation initiation factor 3B (EIF3B)",0.84
same,T/C change ratio,"MDA-MB-231 cells; FXR1_HUMAN, Fragile X mental retardation protein 1",0.76
same,T/C change ratio,"MDA-MB-231 cells; GPX1_HUMAN, Glutathione peroxidase 1 (GPX1)",5.89
same,T/C change ratio,"MDA-MB-231 cells; KAD2_HUMAN, Adenylate kinase 2, mitochondrial",0.51
same,T/C change ratio,"MDA-MB-231 cells; LARP1_HUMAN, La related protein 1 (LARP1)",0.28
same,T/C change ratio,"MDA-MB-231 cells; MANF_HUMAN, Mesencephalic astrocyte-derived neurotrophic factor",0.63
same,T/C change ratio,"MDA-MB-231 cells; MMP14_HUMAN, Matrix metalloprotease-14",1.92
same,T/C change ratio,"MDA-MB-231 cells; PYRG1_HUMAN, CTP synthase 1",0.82
same,T/C change ratio,"MDA-MB-231 cells; RL5_HUMAN, 60 S ribosomal protein L5 (RPSL5)",0.60
same,T/C change ratio,"MDA-MB-231 cells; RS13_HUMAN, 40S ribosomal protein S13 (RPS13)",0.82
same,T/C change ratio,"MDA-MB-231 cells; SDCB1_HUMAN, Sintenin-1",1.43
same,T/C change ratio,"MDA-MB-231 cells; SET_HUMAN, SET protein",0.90
same,T/C change ratio,"MDA-MB-231 cells; SH3G1_HUMAN, Endophilin-A2",0.63
same,T/C change ratio,"MDA-MB-231 cells; SHLB2_HUMAN, Endophilin-B2",0.29
same,T/C change ratio,"MDA-MB-231 cells; SQRD_HUMAN, Sulphide: quinone oxidoreductase (SQRDL), mitochondrial",1.30
same,T/C change ratio,"MDA-MB-231 cells; TAGL2_HUMAN, Transgelin-2",0.75
same,T/C change ratio,"MDA-MB-231 cells; TM9S4_HUMAN, Member 4 of the transmembrane 9 superfamily",0.37
same,T/C change ratio,"MDA-MB-231 cells; TPM4_HUMAN, Tropomyosin alpha-4 chain",0.74
same,T/C change ratio,"MDA-MB-231 cells; TRXR1_HUMAN, Thioredoxin reductase 1 (TXNRD1), cytoplasmic",1.59
same,T/C change ratio,"MDA-MB-231 cells; U2AF2_HUMAN, U2AF union factor 65 kDa subunit",0.31
